What was measured:
[1] = Steady-state fluorescence anisotropy of DPH-doped liposomes, POPC; type: physicochemical; details: 5 min incubation at RT
Excerpt: (§1) The technique used in the present study was steady-state fluorescence anisotropy spectroscopy (fluorescence anisotropy or anisotropy in the following text). The technique was utilised to detect organisational changes within the lipid bilayer using a fluorescent 1,6-diphenyl-1,3,5-hexatriene (DPH) probe. DPH is advantageous in the present application due to its high quantum yield and its ability to indicate subtle changes in the lipid acyl chain organisation. For general reviews on the technique, see Shinitzky & Barenholz[18] and Lentz[19]. The rod-like hydrophobic probe is rotating within the bilayer structure by Brownian motion and it is located between the hydrophobic acyl chains of the lipids. When the probe-containing liposomes are illuminated with UV-light at a fixed wavelength and a fixed level of polarized light, the probe is first excited and subsequently emits light that is partly depolarized, due to the molecular rotations of the probe. This depolarization can be measured as a numerical value of anisotropy (r), as shown by Eq. 1.1 r=I||−I⊥/IT where I|| and I⊥ are the intensities of emitted light parallel and perpendicular to the plane of excitation, respectively. IT is the total intensity of emitted light.
(§2) A reference anisotropy value for each pure liposome was determined daily. This was performed in order to normalise the liposome batch-to-batch and liposome-aging-dependent variation of the anisotropy values. The anisotropy was measured ten times and the mean ± standard deviation was calculated. Subsequently, the pure liposomes and the compounds under investigation were mixed and incubated at room temperature for 5 min, before measuring the anisotropy.
(§3) The lipids and the DPH probe were dissolved in chloroform as stock solutions and the stocks were mixed to give the target molar proportions for each liposome composition (Table 2). After mixing the chloroform lipid stocks, the lipid mixture was dried as a thin film on test tube walls by evaporating the chloroform using a flow of air, until no solvent was visible. The dried thin film of lipids was kept under vacuum for at least 12 h in a desiccator, in order to remove any traces of solvent. Ultra-pure water was added to reach the target lipid concentration of 4.0 mM. […] The aqueous mixture of DPH, lipids and water were incubated under agitation for 60 min at 65 °C and 75 °C to form the non-cholesterol-containing and cholesterol-containing multilamellar liposomes, respectively. Subsequently, the 4.0 mM liposome stock dispersions were extruded through 100 nm pore-size polycarbonate filters 19 times using an Avanti mini-extruder (Avanti Polar Lipids, Alabaster, AL, USA) in order to obtain unilamellar liposomes.
(§4) The fluorescence anisotropy values were measured using a Horiba Jobin Yvon (Northampton, UK) FluoroMax-4 spectrofluorometer, in L-format. The emission and the excitation […] were always set to the same value (8–10 nm) so that the photon counts/second at the detector were as recommended by the manufacturer (from 500 000 to 2 000 000 counts/second). The excitation and emission wavelengths were 360 nm and 450 nm, respectively. The measurements were performed at 21 ± 1 °C. Physiological temperature was not used, since the interactions between the living organism (Vibrio Fischeri) also takes place at a non-physiological temperature of 15 °C. The maximum 7 °C difference (15 °C vs. 22 °C) was considered acceptable. A reference value for the pure liposomes was measured daily. […] Both concentrations were selected by trial and error.

[2] = Steady-state fluorescence anisotropy of DPH-doped liposomes, POPC/POPS 80:20; type: physicochemical; details: compound 50 mM, 5 min incubation at RT
Excerpt: as §1, §2, §3
as §4, with “daily. In order to study the interaction between the compounds and the liposomes, the pure liposomes were mixed with the compounds so that the final concentration of the lipids was 20 µM and that of the studied compounds was 50 mM.” for “daily.”

[3] = Steady-state fluorescence anisotropy of DPH-doped liposomes, POPC/Chol 75:25; type: physicochemical; details: compound 50 mM, 5 min incubation at RT
Excerpt: as §1, §2, §3
as §4, with “daily. In order to study the interaction between the compounds and the liposomes, the pure liposomes were mixed with the compounds so that the final concentration of the lipids was 20 µM and that of the studied compounds was 50 mM.” for “daily.”

[4] = Steady-state fluorescence anisotropy of DPH-doped liposomes, POPC/POPS/Chol 55:20:25; type: physicochemical; details: compound 50 mM, 5 min incubation at RT
Excerpt: as §1, §2, §3
as §4, with “daily. In order to study the interaction between the compounds and the liposomes, the pure liposomes were mixed with the compounds so that the final concentration of the lipids was 20 µM and that of the studied compounds was 50 mM.” for “daily.”

[5] = Steady-state fluorescence anisotropy, stated over the liposome compositions; type: physicochemical; details: four liposome compositions; compound 50 mM
Excerpt: as §1
as §2, with “anisotropy. Similar to the reference measurements, the fluorescence anisotropy value after incubation with the ILs was recorded 10 times and the mean ± standard deviation was calculated.” for “anisotropy.”
In this equation r0 is the fundamental anisotropy in the absence of rotational diffusion of the probe, i.e. the maximum anisotropy value achievable using the specific excitation wavelength. At 360 nm r0 = 0.362 for DPH[26]. C(r) relates the molecular shape and the location of the transition dipoles of the rotating probe into one parameter. For spherical probes C(r) = k/v, where k is the Boltzmann constant and v is the effective volume of the probe. Therefore, C(r) would be constant for spherical molecules, but for other shapes, such as the rod-like DPH, the value is dependent on the experimental value of r. In contrast, as experimentally determined by Shinitzky and Barenholtz, the factor C(r)· T· τ = 240 mPa · s is relatively constant at 0–40 °C in membranes doped with DPH probe. T and τ are the temperature during the experiment and lifetime of the excited state, respectively. By substituting r0 = 0.362 and C(r)· T· τ = 240 mPa · s and by further rearranging of the Eqs. 2 and 3 is obtained.3 η=240mPas⋅r/0.362−r
The equation gives the approximate apparent microviscosity (±15%) based on the recorded anisotropy values. The benefit of determining this is the hyperbolic growth of the apparent microviscosity relatively to anisotropy. […]
In order to compare the anisotropy values with the toxicity values in greater detail, the relative change in anisotropy Δr (%) was calculated as given by Eq. 44 Δr=rliposome+toxicant−rpureliposome/rpureliposome where rpure liposome is the daily anisotropy value measured for each pure liposome and r liposome+toxicant the anisotropy value measured after mixing the pure liposome with the compound of interest. […]

[6] = Steady-state fluorescence anisotropy of DPH-doped liposomes, POPC/POPS 80:20; type: physicochemical; details: compound 0.2 mM, 5 min incubation at RT
[7] = Steady-state fluorescence anisotropy of DPH-doped liposomes, POPC/Chol 75:25; type: physicochemical; details: compound 0.2 mM, 5 min incubation at RT
[8] = Steady-state fluorescence anisotropy of DPH-doped liposomes, POPC/POPS/Chol 55:20:25; type: physicochemical; details: compound 0.2 mM, 5 min incubation at RT
[9] = 333 mM; cited from earlier work

Compound	Relative change in anisotropy, Δr ([1]; compound 50 mM) [%]	Relative change in anisotropy, Δr [2] [%]	Relative change in anisotropy, Δr [3] [%]	Relative change in anisotropy, Δr [4] [%]	Δr, range depending on the liposome composition [5]	Relative change in anisotropy, Δr ([1]; compound 0.2 mM) [%]	Relative change in anisotropy, Δr [6] [%]	Relative change in anisotropy, Δr [7] [%]	Relative change in anisotropy, Δr [8] [%]	changes in fluorescence polarisation [9] [%]
5-Methyl-1,5,7-triazabicyclo[4.3.0]non-6-enium & 7-Methyl-1,5,7-triazabicyclo[4.3.0]non-5-enium mesylate [[MTBNH][OMs]]	-20	-26	-27	-36	–	–	–	–	–	–
CC(=O)[O-].[Na+] [NaOAc, Sodium acetate, reference compound]	11	13	12	12	11–13%	–	–	–	–	–
CS(=O)(=O)[O-].[Na+] [NaOMs, Sodium mesylate, reference compound]	17	11	6	13	6–17%	–	–	–	–	–
C1CC[N+]2(CC1)CCCC2.CC(=O)[O-] [[4.5][OAc], 5-Azoniaspiro[4.5]decane acetate]	6	-5	-1	-6	−6% to +6	–	–	–	–	–
C1CC[N+]2(CC1)CCCCC2.CC(=O)[O-] [[5.5][OAc], 6-Azoniaspiro[5.5]undecane acetate]	-16	-18	-18	-25	–	–	–	–	–	–
C1CCC[N+]2(CC1)CCCCC2.CC(=O)[O-] [[5.6][OAc], 6-Azoniaspiro[5.6]dodecane acetate]	-19	-22	-21	-27	–	–	–	–	–	–
C1CCC2=NCCCN2CC1.CS(=O)(=O)O [[DBUH][OMs], 1,8-Diazabicyclo[5.4.0]undec-7-enium mesylate]	-24	-33	-31	-39	–	–	–	–	–	–
CC(=O)[O-].CCCCCCCC[P+](C)(CCCCCCCC)CCCCCCCC [[P8881][OAc], Methyltrioctylphosphonium acetate]	–	–	–	–	–	-19	-36	-41	-47	–
CCN(CC)CC.CS(=O)(=O)O [[TEAH][OMs], Triethylammonium mesylate]	7	-5	2	-4	−5% to +7	–	–	–	–	–
CN(C)C(=N)N(C)C.CS(=O)(=O)O [[TMGH][OMs], 1,1,3,3-Tetramethylguanidinium mesylate]	11	6	3	5	3–11%	–	–	–	–	–
CCO [ethanol]	–	–	–	–	–	–	–	–	–	< 10
